Laboratory results reported in ChEMBL document CHEMBL6134905, “Double Swords in One: Novel Selective PI3K/110β PROTAC Degraders for the Treatment of Multidrug-Resistant Cancer by Activating ERS and Inhibiting P-gp” (J Med Chem, 2025).
pIC50: −log10 of the molar value. The source made the active and inactive calls. The rule behind the calls is not given here.

Legend:
[1] = target: T1, von Hippel-Lindau disease tumor suppressor/Phosphatidylinositol 4,5-bisphosphate 3-kinase catalytic subunit beta isoform (Homo sapiens, UniProt P42338+P40337); assay: PROTAC activity at PI3K-p110beta/VHL in human MCF7/ADM cells assessed as reduction in PI3K-p110beta level incubated for 12 to 36 hrs by Western blot analysis; type: cell-based; conditions: time 12-36 hrs
A549/CDDP [2] = assay: Antitumor activity against human A549/DDP cells assessed as cell viability incubated for 24 hrs by MTT assay; type: functional, cell-based
A549/CDDP [3] = assay: Induction of ROS level in human A549/DDP cells at 25 uM measured for 24 hrs by MitoSOX staining based analysis; type: functional, cell-based
[4] = Toxicity in BALB/c mouse xenografted with human MCF7/ADM cells assessed as body weight loss at 50 mg/kg, ip; type: organism-based; conditions: in vivo
MCF7/ADM [5] = assay: Antitumor activity against human MCF7/ADM cells xenografted in BALB/c mouse assessed as increase in caspase-12 expression in tumor at 50 mg/kg, ip by Western blot analysis; type: functional, organism-based
[6] = target: T1, von Hippel-Lindau disease tumor suppressor/Phosphatidylinositol 4,5-bisphosphate 3-kinase catalytic subunit beta isoform; assay: PROTAC activity at PI3K-p110beta/VHL in human A549/DDP cells assessed as induction of PI3K-p110beta degradation at 25 uM measured for 24 hrs in presence of MG132 by Western blot analysis; type: cell-based
MCF7/ADM [7] = assay: Upregulation of ATF6 expression in human MCF7/ADM cells at 0.25 to 25 uM incubated for 24 hrs by Western blot analysis; type: functional, cell-based; conditions: dose 0.25-25 µM
A549/CDDP [8] = assay: Upregulation of PERK expression in human A549/DDP cells at 0.25 to 25 uM incubated for 24 hrs by Western blot analysis; type: functional, cell-based; conditions: dose 0.25-25 µM
A549/CDDP [9] = assay: Induction of apoptosis in human A549/DDP cells assessed as increase in caspase-9 expression at 12.5 uM incubated for 24 hrs by Western blot analysis; type: functional, cell-based
[10] = target: T1, von Hippel-Lindau disease tumor suppressor/Phosphatidylinositol 4,5-bisphosphate 3-kinase catalytic subunit beta isoform; assay: PROTAC activity at PI3K-p110beta/VHL in human MCF7/ADM cells assessed as reduction in PI3K-p110beta level incubated for 2 hrs by Western blot analysis; type: cell-based
MCF7/ADM [11] = assay: Antitumor activity against human MCF7/ADM cells xenografted in BALB/c mouse assessed as increase in cleaved caspase-9 expression in tumor at 50 mg/kg, ip by Western blot analysis; type: functional, organism-based
[12] = target: T1, von Hippel-Lindau disease tumor suppressor/Phosphatidylinositol 4,5-bisphosphate 3-kinase catalytic subunit beta isoform; assay: PROTAC activity at PI3K-p110beta/VHL in human A549/DDP cells assessed as induction of PI3K-p110beta degradation incubated for 24 hrs by Western blot analysis; type: cell-based; conditions: dose 0.04-50 µM
MCF7/ADM [13] = assay: Induction of apoptosis in human MCF7/ADM cells assessed as decrease in bcl-2 expression at 12.5 uM incubated for 24 hrs by Western blot analysis; type: functional, cell-based
A549/CDDP [14] = assay: Upregulation of ATF4 expression in human A549/DDP cells at 0.25 to 25 uM incubated for 24 hrs by Western blot analysis; type: functional, cell-based; conditions: dose 0.25-25 µM
[15] = target: ATP-dependent translocase ABCB1 (Homo sapiens, UniProt P08183); assay: Inhibition of P-gp in human MCF7/ADM cells assessed as increase in intracellular Rh123 accumulation at 6.25 to 25 uM incubated for 24 hrs by flow cytometry analysis; type: cell-based; conditions: dose 6.25-25 µM
[16] = target: von Hippel-Lindau disease tumor suppressor/Phosphatidylinositol 4,5-bisphosphate 3-kinase catalytic subunit alpha isoform (Homo sapiens, UniProt P42336+P40337); assay: PROTAC activity at PI3K-p110alpha/VHL in human A549/DDP cells assessed as induction of PI3K-p110alpha degradation incubated for 24 hrs by Western blot analysis; type: cell-based; conditions: for Activity: dose 0.04-50 µM
A549 = assay: Antitumor activity against human A549 cells assessed as cell viability incubated for 24 hrs by MTT assay; type: functional, cell-based; conditions: A549, 24 h
MCF7/ADM [17] = assay: Induction of ROS level in human MCF7/ADM cells at 25 uM measured for 24 hrs by MitoSOX staining based analysis; type: functional, cell-based
MCF7/ADM [18] = assay: Upregulation of p-IRE1 expression in human MCF7/ADM cells at 0.25 to 25 uM incubated for 24 hrs by Western blot analysis; type: functional, cell-based; conditions: dose 0.25-25 µM
MCF7/ADM [19] = assay: Antitumor activity against human MCF7/ADM cells xenografted in BALB/c mouse assessed as downregulation of p110alpha level in tumor at 50 mg/kg, ip; type: functional, organism-based
MCF7/ADM [20] = assay: Antitumor activity against human MCF7/ADM cells xenografted in BALB/c mouse assessed as increase in CHOP expression in tumor at 50 mg/kg, ip by Western blot analysis; type: functional, organism-based
MCF7/ADM [21] = assay: Antitumor activity against human MCF7/ADM cells xenografted in BALB/c mouse assessed as effect on PTEN expression in tumor at 50 mg/kg, ip by Western blot analysis; type: functional, organism-based
Mitochondrial membrane [22] = assay: Induction of mitochondrial membrane potential loss in human A549/DDP cells assessed as increase in green fluorescence at 25 uM incubated for 48 hrs by JC-1 staining based flow cytometry
[23] = target: T1, von Hippel-Lindau disease tumor suppressor/Phosphatidylinositol 4,5-bisphosphate 3-kinase catalytic subunit beta isoform; assay: PROTAC activity at PI3K-p110beta/VHL in human MCF7/ADM cells assessed as reduction in PI3K-p110beta level by Western blot analysis; type: cell-based; conditions: time <= 48.0 hrs
MCF7/ADM [24] = assay: Induction of apoptosis in human MCF7/ADM cells assessed as increase in cleaved caspase-9 expression at 12.5 uM incubated for 24 hrs by Western blot analysis; type: functional, cell-based
Mitochondrial membrane [25] = assay: Induction of mitochondrial membrane potential loss in human MCF7/ADM cells assessed as increase in green fluorescence at 25 uM incubated for 48 hrs by JC-1 staining based flow cytometry
[26] = target: T1, von Hippel-Lindau disease tumor suppressor/Phosphatidylinositol 4,5-bisphosphate 3-kinase catalytic subunit beta isoform; assay: PROTAC activity at PI3K-p110beta/VHL in human A549/DDP cells assessed as reduction in PI3K-p110beta level incubated for 12 to 36 hrs hrs by Western blot analysis; type: cell-based; conditions: time 12-36 hrs
MCF7/ADM [27] = assay: Antitumor activity against human MCF7/ADM cells xenografted in BALB/c mouse assessed as increase in GRP78 expression in tumor at 50 mg/kg, ip by Western blot analysis; type: functional, organism-based
A549/CDDP [28] = assay: Activation of unfolded protein response in human A549/DDP cells at 25 uM incubated for 24 hrs by PROTEOSTATR aggresome dye based fluorescent microscopy; type: functional, cell-based
[29] = Toxicity in BALB/c mouse xenografted with human MCF7/ADM cells assessed as change in WBC count at 50 mg/kg, ip; type: organism-based; conditions: in vivo
[30] = target: T1, von Hippel-Lindau disease tumor suppressor/Phosphatidylinositol 4,5-bisphosphate 3-kinase catalytic subunit beta isoform; assay: PROTAC activity at PI3K-p110beta/VHL in human A549/DDP cells assessed as reduction in PI3K-p110beta level incubated for 2 hrs by Western blot analysis; type: cell-based
A549/CDDP [31] = assay: Induction of apoptosis in human A549/DDP cells assessed as increase in cleaved caspase-9 expression at 12.5 uM incubated for 24 hrs by Western blot analysis; type: functional, cell-based
A549/CDDP [32] = assay: Induction of apoptosis in human A549/DDP cells assessed as decrease in bcl-2 expression at 12.5 uM incubated for 24 hrs by Western blot analysis; type: functional, cell-based
A549/CDDP [33] = assay: Induction of apoptosis in human A549/DDP cells assessed as increase in cleaved caspase-3 expression at 12.5 uM incubated for 24 hrs by Western blot analysis; type: functional, cell-based
A549/CDDP [34] = assay: Upregulation of p-IRE1 expression in human A549/DDP cells at 0.25 to 25 uM incubated for 24 hrs by Western blot analysis; type: functional, cell-based; conditions: dose 0.25-25 µM

T1 sequence (P40337 whole entry, looked up, canonical isoform): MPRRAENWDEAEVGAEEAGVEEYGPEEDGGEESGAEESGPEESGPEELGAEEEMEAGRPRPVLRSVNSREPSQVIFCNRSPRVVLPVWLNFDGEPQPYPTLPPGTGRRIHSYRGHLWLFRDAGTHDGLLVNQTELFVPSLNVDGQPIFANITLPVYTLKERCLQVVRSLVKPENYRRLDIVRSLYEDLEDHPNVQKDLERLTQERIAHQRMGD
T1 sequence (P42338 whole entry, looked up, canonical isoform): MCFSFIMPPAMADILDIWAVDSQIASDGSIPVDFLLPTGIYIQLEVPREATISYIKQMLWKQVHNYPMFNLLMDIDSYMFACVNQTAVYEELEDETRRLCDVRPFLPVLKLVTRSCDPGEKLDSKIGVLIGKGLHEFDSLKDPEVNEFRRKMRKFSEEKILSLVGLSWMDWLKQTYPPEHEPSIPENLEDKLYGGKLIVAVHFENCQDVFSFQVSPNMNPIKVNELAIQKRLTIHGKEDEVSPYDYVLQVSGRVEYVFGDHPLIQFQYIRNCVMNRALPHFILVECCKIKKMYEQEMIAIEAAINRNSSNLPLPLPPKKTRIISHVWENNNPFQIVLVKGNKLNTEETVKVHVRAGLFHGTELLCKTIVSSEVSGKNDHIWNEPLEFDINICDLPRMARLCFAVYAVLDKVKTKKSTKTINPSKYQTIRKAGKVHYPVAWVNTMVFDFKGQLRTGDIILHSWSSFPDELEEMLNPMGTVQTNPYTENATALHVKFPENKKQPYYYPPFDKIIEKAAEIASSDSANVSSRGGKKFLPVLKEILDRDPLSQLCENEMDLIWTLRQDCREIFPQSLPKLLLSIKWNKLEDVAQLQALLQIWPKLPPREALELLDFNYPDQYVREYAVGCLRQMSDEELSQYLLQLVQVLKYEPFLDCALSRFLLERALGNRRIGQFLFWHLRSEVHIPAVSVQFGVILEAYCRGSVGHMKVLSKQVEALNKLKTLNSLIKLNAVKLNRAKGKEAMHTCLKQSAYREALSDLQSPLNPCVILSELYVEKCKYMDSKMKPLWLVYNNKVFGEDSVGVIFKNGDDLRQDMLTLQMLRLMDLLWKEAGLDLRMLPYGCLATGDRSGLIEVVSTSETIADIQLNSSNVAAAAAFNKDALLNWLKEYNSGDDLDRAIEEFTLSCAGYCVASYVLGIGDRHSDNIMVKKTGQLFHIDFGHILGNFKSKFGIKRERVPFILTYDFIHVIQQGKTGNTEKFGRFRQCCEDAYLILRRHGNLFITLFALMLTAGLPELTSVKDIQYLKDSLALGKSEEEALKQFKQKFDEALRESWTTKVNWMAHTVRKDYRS
ATP-dependent translocase ABCB1, sequence (P08183 whole entry, canonical isoform): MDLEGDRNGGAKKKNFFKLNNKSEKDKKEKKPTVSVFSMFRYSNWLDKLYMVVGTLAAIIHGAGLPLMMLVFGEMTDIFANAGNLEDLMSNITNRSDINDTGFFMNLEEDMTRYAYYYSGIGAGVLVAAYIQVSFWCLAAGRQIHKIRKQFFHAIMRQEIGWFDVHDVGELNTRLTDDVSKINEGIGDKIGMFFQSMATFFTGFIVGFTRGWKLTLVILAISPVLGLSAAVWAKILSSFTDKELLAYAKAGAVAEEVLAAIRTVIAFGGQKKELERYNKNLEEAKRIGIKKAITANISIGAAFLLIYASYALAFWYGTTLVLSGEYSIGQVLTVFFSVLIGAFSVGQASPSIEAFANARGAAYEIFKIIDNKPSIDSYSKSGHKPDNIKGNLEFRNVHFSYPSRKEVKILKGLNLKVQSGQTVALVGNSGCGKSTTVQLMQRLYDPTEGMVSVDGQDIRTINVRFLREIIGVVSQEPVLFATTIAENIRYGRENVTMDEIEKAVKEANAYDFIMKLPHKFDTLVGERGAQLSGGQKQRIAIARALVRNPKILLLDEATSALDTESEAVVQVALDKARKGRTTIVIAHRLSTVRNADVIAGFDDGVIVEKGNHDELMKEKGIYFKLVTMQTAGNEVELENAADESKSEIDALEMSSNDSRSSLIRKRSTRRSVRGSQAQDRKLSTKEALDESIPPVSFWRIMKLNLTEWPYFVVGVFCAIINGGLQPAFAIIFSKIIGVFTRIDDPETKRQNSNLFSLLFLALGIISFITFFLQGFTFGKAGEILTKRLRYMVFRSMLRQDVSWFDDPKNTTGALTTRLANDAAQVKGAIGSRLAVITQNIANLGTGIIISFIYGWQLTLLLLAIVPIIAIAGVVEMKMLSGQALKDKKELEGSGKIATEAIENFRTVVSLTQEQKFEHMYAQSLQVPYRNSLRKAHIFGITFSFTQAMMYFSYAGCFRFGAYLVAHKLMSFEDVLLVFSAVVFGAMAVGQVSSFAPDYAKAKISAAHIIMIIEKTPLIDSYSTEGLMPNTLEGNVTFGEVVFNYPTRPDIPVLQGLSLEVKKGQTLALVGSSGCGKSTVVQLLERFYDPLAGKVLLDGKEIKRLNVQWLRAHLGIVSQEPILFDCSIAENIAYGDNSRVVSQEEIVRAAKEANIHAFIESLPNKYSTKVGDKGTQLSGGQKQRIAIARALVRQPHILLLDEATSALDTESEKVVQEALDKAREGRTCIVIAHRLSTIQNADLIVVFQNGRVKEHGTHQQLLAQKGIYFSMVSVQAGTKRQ

Row | Activity [1] | pIC50 (A549/CDDP [2]) | Activity [6] | Activity [10] | Activity [12] | inhibition (INH) [15] | Activity [16] | pIC50 (A549) | Compound | Activity (A549/CDDP [3]) | Activity [4] | Activity (MCF7/ADM [5]) | Activity (MCF7/ADM [7]) | Activity (A549/CDDP [8]) | Activity (A549/CDDP [9]) | Activity (MCF7/ADM [11]) | Activity (MCF7/ADM [13]) | Activity (A549/CDDP [14]) | Activity (MCF7/ADM [17]) | Activity (MCF7/ADM [18]) | Activity (MCF7/ADM [19]) | also measured
1 | Active | 4.37 | Active | Active | Dose-dependent-effect | Active | Dose-dependent-effect | 4.12 | Cc1cc(C(C)Nc2ccccc2C(=O)NCCOCCOCCC(=O)N[C@H](C(=O)N2C[C@H](O)C[C@H]2C(=O)NCc2ccc(-c3scnc3C)cc2)C(C)(C)C)c2nc(N3CCOCC3)cc(=O)n2c1 (stereo partly specified) | Active | Non-toxic | Active | Active | Active | Active | Active | Active | Active | Active | Active | Active | Activity (MCF7/ADM [20]): Active; Activity (MCF7/ADM [21]): inactive; Activity (Mitochondrial membrane [22]): Active; Activity [23]: Time-dependent-effect; Activity (MCF7/ADM [24]): Active; Activity (Mitochondrial membrane [25]): Active; Activity [26]: Active; Activity (MCF7/ADM [27]): Active; Activity (A549/CDDP [28]): Active; Activity [29]: Non-toxic; Activity [30]: Active; Activity (A549/CDDP [31]): Active; Activity (A549/CDDP [32]): Active; Activity (A549/CDDP [33]): Active; Activity (A549/CDDP [34]): Active
2 | Active | 4.41 | Active | Active | Dose-dependent-effect | Active | Dose-dependent-effect | 4.07 | Cc1cc(C(C)Nc2ccccc2C(=O)NCCCCCCC(=O)N[C@H](C(=O)N2C[C@H](O)C[C@H]2C(=O)NCc2ccc(-c3scnc3C)cc2)C(C)(C)C)c2nc(N3CCOCC3)cc(=O)n2c1 (stereo partly specified) | Active | Non-toxic | Active | Active | Active | Active | Active | Active | Active | Active | Active | Active | DC50 [16]: > 30 µM; Activity (MCF7/ADM [20]): Active; Activity (MCF7/ADM [21]): inactive; Activity (Mitochondrial membrane [22]): Active; Activity [23]: Time-dependent-effect; Activity (MCF7/ADM [24]): Active; Activity (Mitochondrial membrane [25]): Active; Activity [26]: Active; Activity (MCF7/ADM [27]): Active; Activity (A549/CDDP [28]): Active; Activity [29]: Non-toxic; Activity [30]: Active; Activity (A549/CDDP [31]): Active; Activity (A549/CDDP [32]): Active; Activity (A549/CDDP [33]): Active; Activity (A549/CDDP [34]): Active
